Reference: patent US12509431B2, “1,4-dihydroquinazolinone compounds and uses thereof” (Edgewise Therapeutics, Inc., priority 2022, dated 2025)

These molecules were tested on Rabbit Skeletal myofibrils (rabbit psoas muscle) (assay: Myofibril ATPase assay (PK/LDH NADH-coupled), skeletal myofibrils). Conditions: Table 8.
Format: biochemical
In short: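 ATPase rate taken as linear-regression slope of A340 (NADH depletion through PK/LDH coupling) over a 75 min kinetic read, with psoas-derived rabbit skeletal myofibrils at pH 7.0. Four-parameter fits of vehicle-normalized activity give EC25 and, where reached, EC50.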

Rabbit Psoas IC25	SMILES
100 µM	Cc1ccc([C@@H](C)NC(=O)CN2Cc3cc(F)ccc3NC2=O)c(F)c1 [Compound B209]
0.1421 µM	Cc1ccc([C@H](C)NC(=O)CN2Cc3cc(F)ccc3NC2=O)c(F)c1 [Compound B210]
100 µM	C[C@@H](C(=O)N[C@H](CO)c1ccc(F)cc1F)N1Cc2c(Cl)cccc2NC1=O [Compound B211]
77.91 µM	C[C@@H](C(=O)N[C@@H](CO)c1ccc(F)cc1F)N1Cc2c(Cl)cccc2NC1=O [Compound B212]
100 µM	C[C@H](C(=O)N[C@H](CO)c1ccc(F)cc1F)N1Cc2c(Cl)cccc2NC1=O [Compound B213]
0.088 µM	C[C@H](C(=O)N[C@@H](CO)c1ccc(F)cc1F)N1Cc2c(Cl)cccc2NC1=O [Compound B214]
100 µM	C[C@@H](NC(=O)CN1Cc2cc(F)ccc2NC1=O)c1ncccn1 [Compound B215]
100 µM	C[C@H](NC(=O)CN1Cc2cc(F)ccc2NC1=O)c1ncccn1 [Compound B216]
0.0678 µM	O=C(CN1Cc2cc(F)ccc2NC1=O)N[C@H](CO)c1ccc(F)cc1F [Compound B217]
9.306 µM	O=C(CN1Cc2cc(F)ccc2NC1=O)N[C@@H](CO)c1ccc(F)cc1F [Compound B218]
31.8 µM	C[C@H](NC(=O)[C@H](Cc1ccccc1)N1Cc2cc(F)ccc2NC1=O)c1ccc(F)cc1F [Compound B219]
47.56 µM	C[C@H](NC(=O)[C@@H](Cc1ccccc1)N1Cc2cc(F)ccc2NC1=O)c1ccc(F)cc1F [Compound B220]
0.0174 µM	C[C@H](NC(=O)CN1C(=O)Nc2ccc(F)cc2C12CC2)c1ccc(F)cc1F [Compound B221]
0.041 µM	C[C@H](NC(=O)[C@H](C)N1Cc2c(F)cccc2NC1=O)c1ccc(F)cc1F [Compound B222]
1.426 µM	C[C@H](NC(=O)[C@@H](C)N1Cc2c(F)cccc2NC1=O)c1ccc(F)cc1F [Compound B223]
3.991 µM	Cc1cc(F)ccc1[C@@H](C)NC(=O)CN1Cc2cc(F)ccc2NC1=O [Compound B224]
0.0175 µM	Cc1cc(F)ccc1[C@H](C)NC(=O)CN1Cc2cc(F)ccc2NC1=O [Compound B225]
0.0244 µM	C[C@H](NC(=O)CN1Cc2c(Br)cccc2NC1=O)c1ccc(F)cc1F [Compound B226]

The molecules below were run against T1, Porcine Ventricle myofibrils (left ventricle of Yucatan minipigs) (Sus scrofa, UniProt P79293) (assay: Myofibril ATPase assay (PK/LDH NADH-coupled), ventricle myofibrils). Conditions: Table 8.
T1 construct: Myofibrils from porcine cardiac muscle was isolated from the left ventricle of Yucatan minipigs; tissue Exemplar Genetics; host or cells: left ventricle of Yucatan minipigs
T1 sequence (P79293 whole entry): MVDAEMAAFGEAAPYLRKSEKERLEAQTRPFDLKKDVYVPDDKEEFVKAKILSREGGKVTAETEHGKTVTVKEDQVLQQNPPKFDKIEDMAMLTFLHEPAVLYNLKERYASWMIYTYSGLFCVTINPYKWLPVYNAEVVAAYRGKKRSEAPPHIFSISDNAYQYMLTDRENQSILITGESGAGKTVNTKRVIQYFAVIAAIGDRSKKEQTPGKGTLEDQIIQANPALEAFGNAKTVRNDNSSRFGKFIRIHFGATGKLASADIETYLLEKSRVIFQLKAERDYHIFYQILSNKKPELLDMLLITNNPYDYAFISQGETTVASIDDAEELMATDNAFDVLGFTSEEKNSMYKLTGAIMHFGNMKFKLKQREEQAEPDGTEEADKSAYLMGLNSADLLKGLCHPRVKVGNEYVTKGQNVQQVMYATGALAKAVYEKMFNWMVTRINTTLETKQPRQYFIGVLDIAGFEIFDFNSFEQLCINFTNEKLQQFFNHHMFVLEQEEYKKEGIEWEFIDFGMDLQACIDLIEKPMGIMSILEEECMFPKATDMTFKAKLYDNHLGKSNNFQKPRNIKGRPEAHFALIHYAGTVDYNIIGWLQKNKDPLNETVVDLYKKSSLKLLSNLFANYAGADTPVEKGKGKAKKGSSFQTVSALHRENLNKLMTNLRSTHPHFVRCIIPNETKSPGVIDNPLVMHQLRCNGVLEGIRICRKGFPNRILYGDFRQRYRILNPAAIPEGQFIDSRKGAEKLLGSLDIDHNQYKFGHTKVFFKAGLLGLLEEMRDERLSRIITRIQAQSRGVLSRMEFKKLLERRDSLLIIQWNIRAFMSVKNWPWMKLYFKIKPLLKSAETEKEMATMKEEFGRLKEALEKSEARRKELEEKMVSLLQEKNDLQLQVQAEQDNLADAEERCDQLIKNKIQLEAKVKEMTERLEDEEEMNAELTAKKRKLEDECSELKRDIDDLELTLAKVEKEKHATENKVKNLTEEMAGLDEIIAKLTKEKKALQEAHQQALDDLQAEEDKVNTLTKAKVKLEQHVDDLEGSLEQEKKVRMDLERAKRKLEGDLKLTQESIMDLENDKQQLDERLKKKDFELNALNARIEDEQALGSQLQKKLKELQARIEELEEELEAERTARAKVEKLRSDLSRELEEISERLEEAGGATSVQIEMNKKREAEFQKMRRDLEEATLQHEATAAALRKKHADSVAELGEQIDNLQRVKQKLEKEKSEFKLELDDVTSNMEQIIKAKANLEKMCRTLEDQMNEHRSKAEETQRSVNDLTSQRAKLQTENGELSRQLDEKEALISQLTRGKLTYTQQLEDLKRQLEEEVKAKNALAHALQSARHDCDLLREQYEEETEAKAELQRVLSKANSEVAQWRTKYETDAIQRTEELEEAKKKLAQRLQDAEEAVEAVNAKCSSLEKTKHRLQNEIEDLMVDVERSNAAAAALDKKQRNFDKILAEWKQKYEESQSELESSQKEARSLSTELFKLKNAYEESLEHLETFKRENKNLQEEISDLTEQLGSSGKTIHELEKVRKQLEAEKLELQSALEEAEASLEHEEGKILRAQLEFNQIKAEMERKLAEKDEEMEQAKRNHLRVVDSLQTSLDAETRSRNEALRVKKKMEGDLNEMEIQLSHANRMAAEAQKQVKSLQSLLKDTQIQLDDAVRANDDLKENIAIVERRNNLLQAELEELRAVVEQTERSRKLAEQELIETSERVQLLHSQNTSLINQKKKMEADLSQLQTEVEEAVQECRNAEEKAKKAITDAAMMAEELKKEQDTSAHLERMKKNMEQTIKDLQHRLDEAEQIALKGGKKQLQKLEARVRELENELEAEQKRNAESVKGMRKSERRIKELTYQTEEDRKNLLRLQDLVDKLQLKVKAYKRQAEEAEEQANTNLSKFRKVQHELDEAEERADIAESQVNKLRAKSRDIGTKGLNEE
Format: biochemical
In short: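 NADH depletion (A340) coupled through pyruvate kinase/lactate dehydrogenase reports ATPase rate of porcine left-ventricle myofibrils over 75 min kinetic reads. Regression slopes, vehicle-normalized, fitted by 4-parameter logistic give EC25 and, where available, EC50.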

Porcine Ventricle IC25	SMILES
100 µM	Cc1ccc([C@@H](C)NC(=O)CN2Cc3cc(F)ccc3NC2=O)c(F)c1 [Compound B209]
2.251 µM	Cc1ccc([C@H](C)NC(=O)CN2Cc3cc(F)ccc3NC2=O)c(F)c1 [Compound B210]
100 µM	C[C@@H](C(=O)N[C@H](CO)c1ccc(F)cc1F)N1Cc2c(Cl)cccc2NC1=O [Compound B211]
15.17 µM	C[C@@H](C(=O)N[C@@H](CO)c1ccc(F)cc1F)N1Cc2c(Cl)cccc2NC1=O [Compound B212]
100 µM	C[C@H](C(=O)N[C@H](CO)c1ccc(F)cc1F)N1Cc2c(Cl)cccc2NC1=O [Compound B213]
0.2408 µM	C[C@H](C(=O)N[C@@H](CO)c1ccc(F)cc1F)N1Cc2c(Cl)cccc2NC1=O [Compound B214]
100 µM	C[C@@H](NC(=O)CN1Cc2cc(F)ccc2NC1=O)c1ncccn1 [Compound B215]
100 µM	C[C@H](NC(=O)CN1Cc2cc(F)ccc2NC1=O)c1ncccn1 [Compound B216]
0.8987 µM	O=C(CN1Cc2cc(F)ccc2NC1=O)N[C@H](CO)c1ccc(F)cc1F [Compound B217]
100 µM	O=C(CN1Cc2cc(F)ccc2NC1=O)N[C@@H](CO)c1ccc(F)cc1F [Compound B218]
100 µM	C[C@H](NC(=O)[C@H](Cc1ccccc1)N1Cc2cc(F)ccc2NC1=O)c1ccc(F)cc1F [Compound B219]
100 µM	C[C@H](NC(=O)[C@@H](Cc1ccccc1)N1Cc2cc(F)ccc2NC1=O)c1ccc(F)cc1F [Compound B220]
0.1086 µM	C[C@H](NC(=O)CN1C(=O)Nc2ccc(F)cc2C12CC2)c1ccc(F)cc1F [Compound B221]
0.4365 µM	C[C@H](NC(=O)[C@H](C)N1Cc2c(F)cccc2NC1=O)c1ccc(F)cc1F [Compound B222]
3.783 µM	C[C@H](NC(=O)[C@@H](C)N1Cc2c(F)cccc2NC1=O)c1ccc(F)cc1F [Compound B223]
100 µM	Cc1cc(F)ccc1[C@@H](C)NC(=O)CN1Cc2cc(F)ccc2NC1=O [Compound B224]
0.1849 µM	Cc1cc(F)ccc1[C@H](C)NC(=O)CN1Cc2cc(F)ccc2NC1=O [Compound B225]
0.2274 µM	C[C@H](NC(=O)CN1Cc2c(Br)cccc2NC1=O)c1ccc(F)cc1F [Compound B226]

Each molecule was assayed on Porcine Atria myofibrils (assay: Myofibril ATPase assay (PK/LDH NADH-coupled), atria myofibrils). Conditions: Table 8.
Format: biochemical
In short: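 Values are EC25% (and, for inhibitors, EC50%) from 4-parameter logistic fits of activity normalized to vehicle wells. Rates came from linear regression of 340 nm kinetic reads (every 1.5-2 min, 75 min) of NADH-coupled ATP turnover by porcine atria myofibrils.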

Porcine Atria IC25	SMILES
12.15 µM	Cc1ccc([C@@H](C)NC(=O)CN2Cc3cc(F)ccc3NC2=O)c(F)c1 [Compound B209]
0.18 µM	Cc1ccc([C@H](C)NC(=O)CN2Cc3cc(F)ccc3NC2=O)c(F)c1 [Compound B210]
100.00 µM	C[C@@H](C(=O)N[C@H](CO)c1ccc(F)cc1F)N1Cc2c(Cl)cccc2NC1=O [Compound B211]
1.52 µM	C[C@@H](C(=O)N[C@@H](CO)c1ccc(F)cc1F)N1Cc2c(Cl)cccc2NC1=O [Compound B212]
97.43 µM	C[C@H](C(=O)N[C@H](CO)c1ccc(F)cc1F)N1Cc2c(Cl)cccc2NC1=O [Compound B213]
0.07 µM	C[C@H](C(=O)N[C@@H](CO)c1ccc(F)cc1F)N1Cc2c(Cl)cccc2NC1=O [Compound B214]
100.00 µM	C[C@@H](NC(=O)CN1Cc2cc(F)ccc2NC1=O)c1ncccn1 [Compound B215]
100.00 µM	C[C@H](NC(=O)CN1Cc2cc(F)ccc2NC1=O)c1ncccn1 [Compound B216]
0.13 µM	O=C(CN1Cc2cc(F)ccc2NC1=O)N[C@H](CO)c1ccc(F)cc1F [Compound B217]
8.55 µM	O=C(CN1Cc2cc(F)ccc2NC1=O)N[C@@H](CO)c1ccc(F)cc1F [Compound B218]
100.00 µM	C[C@H](NC(=O)[C@H](Cc1ccccc1)N1Cc2cc(F)ccc2NC1=O)c1ccc(F)cc1F [Compound B219]
53.57 µM	C[C@H](NC(=O)[C@@H](Cc1ccccc1)N1Cc2cc(F)ccc2NC1=O)c1ccc(F)cc1F [Compound B220]
0.03 µM	C[C@H](NC(=O)CN1C(=O)Nc2ccc(F)cc2C12CC2)c1ccc(F)cc1F [Compound B221]
0.05 µM	C[C@H](NC(=O)[C@H](C)N1Cc2c(F)cccc2NC1=O)c1ccc(F)cc1F [Compound B222]
0.44 µM	C[C@H](NC(=O)[C@@H](C)N1Cc2c(F)cccc2NC1=O)c1ccc(F)cc1F [Compound B223]
28.57 µM	Cc1cc(F)ccc1[C@@H](C)NC(=O)CN1Cc2cc(F)ccc2NC1=O [Compound B224]
0.05 µM	Cc1cc(F)ccc1[C@H](C)NC(=O)CN1Cc2cc(F)ccc2NC1=O [Compound B225]
0.14 µM	C[C@H](NC(=O)CN1Cc2c(Br)cccc2NC1=O)c1ccc(F)cc1F [Compound B226]
